Measured values published in patent US8557800B2, “Sphingosine kinase inhibitors” (Apogee Biotechnology Corporation, priority 2005, dated 2013).

Assays:
recombinant human SK = test: Inhibition of recombinant human SK, LC/MS/MS assay; format: biochemical; settings: 6 μg/ml compound
Outline: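 Enzyme incubated with unlabeled sphingosine and ATP (1 mM, as in the radiometric format) for 30 min, then stopped and extracted with acetonitrile. S1P quantified by C8 reverse-phase HPLC–MS/MS against C17 sphingosine and C17 S1P internal standards using calibration curves.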

[1] = test system: MCF-7 human breast adenocarcinoma cells; test: Cytotoxicity, SRB binding assay; format: cell-based; settings: MCF7, inhibition of cell proliferation, 48 h, read-out: MCF-7 IC50
Outline: (§1)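 Cells exposed to varying compound doses for 48 h, then survival measured by sulforhodamine B staining. IC50 is the concentration giving 50% proliferation inhibition, in μM, as mean±sd of replicate trials.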

[2] = test system: MCF-10A non-transformed human breast epithelial cells; test: Cytotoxicity, SRB binding assay; format: cell-based; settings: inhibition of cell proliferation, 48 h, read-out: MCF-10A IC50
Outline: as §1

[3] = test system: endogenous SK in MDA-MB-231 human breast carcinoma cells; test: Intact cell SK assay, conversion of [3H]sphingosine to [3H]S1P; format: cell-based; settings: MDA-MB-231 cells, 20 μg/ml compound
Source text: The cells take up the exogenous [^3H]sphingosine and convert it to [^3H]S1P through the action of endogenous SK. The resulting [^3H]S1P is isolated via charge-based separation as indicated above. […] For potency studies, MDA-MB-231 cells were exposure to varying concentrations of a test Compound and then assayed for conversion of [^3H]sphingosine to [^3H]S1P.

[4] = test system: mouse JC mammary adenocarcimona cell line growing subcutaneously in Balb/c mice; settings: JC tumor model, intraperitoneal (ip) or oral (po) administration
Method: The antitumor activity of the representative SK inhibitors were evaluated using a syngeneic tumor model that uses the mouse JC mammary adenocarcimona cell line growing subcutaneously in immunocompetent Balb/c mice (Lee et al., 2003, Oncol Res 14: 49).
In FIG. 1, Balb/c mice, 6-8 weeks old, were injected subcutaneously with 10^6 JC cells suspended in phosphate-buffered saline. The SK inhibitors Compounds 62 and 57 were dissolved in PEG400 and administered to mice every-other day at a dose of 100 mg/kg. Body weights and tumor volumes were monitored daily. In FIG. 1, tumor growth is expressed as the tumor volume relative to day 1 for each animal.

[5] = test system: C57BL/6 mice, DSS model of IBD; test: Acute DSS-colitis model; format: in vivo, mouse; settings: 2% DSS, 50 mg/kg oral daily
Method: We have conducted experiments with SK inhibitors using the dextran sulfate sodium (DSS) model of IBD. In these experiments, male C57BL/6 mice were provided with standard rodent diet and water ad libitum. After their acclimation, the animals were randomly divided into groups of 5 or 6 for DSS (40,000 MW from ICN Biomedicals, Inc., Aurora, Ohio)—and drug-treatment. The SK inhibitors were dissolved in PEG400, and given once daily by oral gavage in a volume of 0.1 mL per dose. Dipentum, an FDA-approved anti-colitis drug whose active ingredient, olsalazine, is converted to 5-aminosalicylic acid in vivo, was used as a positive control. The mice were given normal drinking water or 2% DSS and treated orally with an SK inhibitor or Dipentum at a dose of 50 mk/kg daily. The body weight of each animal was measured each day, and the Disease Activity Index (DAI) was scored for each animal on Days 4-6. On Day 6, the animals were sacrificed by cervical dislocation and the entire colon was removed and measured to the nearest 0.1 cm. Portions of the colons were then fixed, sectioned and their histologies were assessed on a blinded basis to determine their Histology Score. Other portions of the colons were used for biochemical analyses of inflammation markers.

[6] = test system: mice, multiple cycles of DSS-induced inflammation; test: Chronic DSS-colitis model (35-day); format: in vivo, mouse
Method: FIG. 13. Effects of Compound 62 on the DAI in the chronic DSS-colitis model. Mice received 2 cycles (7 days per cycle) of DSS (1.5% cycle 1 and 1% cycle 2), 2 cycles of normal drinking water and were randomized by DAI on Day 28 into groups of 8 mice. The mice were then treated as follows: No DSS (▪)—normal drinking water and orally dosed with PEG400 every day for 7 days (water control); DSS alone (▴)—drinking water containing 1.5% DSS and orally dosed with PEG daily for 7 days; DSS+Compound 62 (▾)—drinking water containing 1.5% DSS and orally dosed with Compound 62 (50 mg/kg) every day for 7 days; DSS+Dipentum (♦)—drinking water containing 1.5% DSS and orally dosed with Dipentum (50 mg/kg). *p<0.001 versus No DSS group.
A 35-day model of IBD was used to evaluate the effectiveness of the SK inhibitors in mice that experience multiple cycles of DSS-induced inflammation. This chronic model is similar to the acute model, except that the DSS concentration in the drinking water is lower and animals receive periodic exposure to DSS (DSS on days 1-7, water on Days 8-13, DSS on day 14-21, water on Days 22-27 and then DSS until the completion of the study on Day 35). In these experiments, treatment of the mice with an SK inhibitor or Dipentum began on Day 28 and continued daily until the completion of the study. The DAI index was monitored every other day until Day 28 and then daily until Day 35. Animals were sacrificed on Day 35, and changes in the colon length and cytokine profiles were measured.

Q: Which results are given for `O=C(NCc1ccc(O)c(O)c1)C12CC3CC(C1)CC(c1ccc(Cl)cc1)(C3)C2` [Compound 36, 3-(4-Chloro-phenyl)-adamantane-1-carboxylic acid 3,4-dihydroxy-benzylamide]?
A: Recombinant SK (% inhibition) (recombinant human SK): 37%; IC50 [1]: 13 µM; IC50 [2]: 9 µM; Cellular S1P (% inhibition) [3]: 72%

Q: Which “Recombinant SK (% inhibition)” value (recombinant human SK) does the source give for `COc1ccc(CCNC(=O)C23CC4CC(C2)CC(c2ccc(Cl)cc2)(C4)C3)cc1` [Compound 41, 3-(4-Chloro-phenyl)-adamantane-1-carboxylic acid [2-(4-methoxy-phenyl)-ethyl]-amide] here?
A: The value was 67%.

Q: What about the IC50 [1] of the same compound?
A: The IC50 was 6 µM.

Q: And the IC50 [2]?
A: Its IC50 is 71 µM.

Q: And the “Cellular S1P (% inhibition)” value [3]?
A: Its value is 23%.

Q: What does the source list for `O=C(NCCc1ccc(O)c(O)c1)C12CC3CC(C1)CC(c1ccc(Cl)cc1)(C3)C2` [Compound 44, 3-(4-Chloro-phenyl)-adamantane-1-carboxylic acid [2-(3,4-dihydroxy-phenyl)-ethyl]-amide]?
A: IC50 [1]: 6 µM; IC50 [2]: 9 µM; In vivo activity [4]: active - ip

Q: With `CN1CCC(NC(=O)C23CC4CC(C2)CC(c2ccc(Cl)cc2)(C4)C3)CC1` [Compound 51, 3-(4-Chloro-phenyl)-adamantane-1-carboxylic acid (1-methyl-piperidin-4-yl)-amide] as the compound, how does the “Recombinant SK (% inhibition)” value (recombinant human SK) read?
A: The value was 84%.

Q: And the IC50 [1]?
A: The IC50 was 8 µM.

Q: What about the IC50 [2] of the same compound?
A: The IC50 was 25 µM.

Q: What about the In vivo activity [4] of the same compound?
A: The In vivo activity was “active - ip and po”.

Q: For `O=C(NCCc1ccncc1)C12CC3CC(CC(C3)C1)C2` [Compound 63, Adamantane-1-carboxylic acid (2-pyridin-4-yl-ethyl)-amide], which “Recombinant SK (% inhibition)” value (recombinant human SK) is on record?
A: Its value is 0%.

Q: What about the IC50 [1] of the same compound?
A: Its IC50 is 11 µM.

Q: And the “Cellular S1P (% inhibition)” value [3]?
A: The value was 39%.

Q: Which “Recombinant SK (% inhibition)” value (recombinant human SK) does the source give for `Oc1ccc(NCC23CC4CC(C2)CC(c2ccc(Cl)cc2)(C4)C3)cc1` [Compound 76, 4-{[3-(4-Chloro-phenyl)-adamantan-1-ylmethyl]-amino}-phenol] here?
A: The value was 42%.

Q: And the IC50 [1]?
A: Its IC50 is 5 µM.

Q: And the melting point?
A: Its melting point is 138 to 140 °C.

Q: Which “Recombinant SK (% inhibition)” value (recombinant human SK) does the source give for `CCn1c2ccccc2c2cc(NCC34CC5CC(C3)CC(c3ccc(Cl)cc3)(C5)C4)ccc21` [Compound 89, [3-(4-Chloro-phenyl)-adamantan-1-ylmethyl]-(9-ethyl-9H-carbazol-3-yl)-amine] here?
A: The value was 37%.

Q: And the IC50 [1]?
A: Its IC50 is 74 µM.

Q: What about the IC50 [2] of the same compound?
A: The IC50 was 41 µM.

Q: And the “Cellular S1P (% inhibition)” value [3]?
A: Its value is 1%.

Q: With `CC(NC1CCN(C)CC1)C12CC3CC(CC(c4ccc(Cl)cc4)(C3)C1)C2` (stereo not drawn) [Compound 107, {1-[3-(4-Chloro-phenyl)-adamantan-1-yl]-ethyl}-(1-methyl-piperidin-4-yl)-amine] as the compound, how does the IC50 [1] read?
A: Its IC50 is 1 µM.

Q: And the IC50 [2]?
A: The IC50 was 1 µM.

Q: And the In vivo activity [4]?
A: Its In vivo activity is “active - ip”.

Q: What does the source list for `O=C(/C=C/c1ccc(O)cc1)C12CC3CC(C1)CC(c1ccc(Cl)cc1)(C3)C2` [Compound 132, 1-[3-(4-Chloro-phenyl)-adamantan-1-yl]-3-(4-hydroxy-phenyl)-propenone]?
A: Recombinant SK (% inhibition) (recombinant human SK): 8%; IC50 [1]: 17 µM; melting point: 87 to 89 °C

Q: With `O=C(/C=C/c1ccc2ccccc2c1)C12CC3CC(C1)CC(c1ccc(Cl)cc1)(C3)C2` [Compound 133, 1-[3-(4-Chloro-phenyl)-adamantan-1-yl]-3-naphthalen-2-yl-propenone] as the compound, how does the “Recombinant SK (% inhibition)” value (recombinant human SK) read?
A: The value was 36%.

Q: What about the IC50 [1] of the same compound?
A: The IC50 was 13 µM.

Q: What about the melting point of the same compound?
A: Its melting point is 82 to 84 °C.

Q: With `CCn1c2ccccc2c2cc(/C=C/C(=O)C34CC5CC(C3)CC(c3ccc(Cl)cc3)(C5)C4)ccc21` [Compound 136, 1-[3-(4-Chloro-phenyl)-adamantan-1-yl]-3-(9-ethyl-9H-carbazol-3-yl)-propenone] as the compound, how does the IC50 [1] read?
A: The IC50 was 8 µM.

Q: What about the melting point of the same compound?
A: Its melting point is 138 to 140 °C.

Q: What does the source list for `O=C(O)c1cc(/N=N/c2ccc(O)c(C(=O)O)c2)ccc1O` [Dipentum, olsalazine, reference compound]?
A: elevations of colon pro-inflammatory proteins IFN-γ, IL-1β, IL-6 and TNFα [5]: attenuated; increase in colon myeloperoxidase (MPO) activity [5]: markedly attenuated; Histology Score vs DSS-alone animals ([5]; Day 6): consistently lower; colon length ([5]; Day 6): intermediate length; Disease Activity Index (intensity of IBD manifestations) ([5]; Days 4-6): reduced; colon length ([6]; 50 mg/kg oral daily Day 28-35, DSS alone 4.9±0.2, water 7.8±0.3): 6.1±0.2 cm; increase in DAI ([6]; 50 mg/kg oral daily from Day 28 to Day 35, third DSS exposure): significantly suppressed; serum level of IL-6 ([6]; at sacrifice, Day 35): reduced; colon levels of pro-inflammatory cytokines TNFα, IL-1β, IFN-γ and IL-6 ([6]; treated during the final DSS cycle): equivalent to the DSS-alone group
